The values below come from patent US12479827B2, “Heteroaromatic carboxamide derivatives as plasma kallikrein inhibitors” (Boehringer Ingelheim International GmbH, priority 2020, dated 2025).

Common to all, as to type: biochemical
The target of experiment [1] is T1, Human PKK (Homo sapiens, UniProt P03952).
T1 construct: purchased Enzyme Research Laboratories
As to the kind of experiment: Inhibition of PKK using an endpoint assay (human PKK). The conditions noted are these: fluorogenic substrate H-Pro-Phe-Arg-AMC, 1 h room temperature, method names human or rat PKK, table does not say which. The gist of the method: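 Human PKK inhibition measured in 100 mM Tris, 150 mM NaCl, pH 7.8, 0.1% BSA, 0.05% Tween20, 1% DMSO. Endpoint format: reaction stopped with PPACK II at 1 μM final, fluorescence read at 355 nm excitation/460 nm emission.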

The target in the next experiment is T2, human TK1 (Homo sapiens, UniProt P06870).
T2 construct: purchased R&D Systems
T2 sequence (P06870 25-262): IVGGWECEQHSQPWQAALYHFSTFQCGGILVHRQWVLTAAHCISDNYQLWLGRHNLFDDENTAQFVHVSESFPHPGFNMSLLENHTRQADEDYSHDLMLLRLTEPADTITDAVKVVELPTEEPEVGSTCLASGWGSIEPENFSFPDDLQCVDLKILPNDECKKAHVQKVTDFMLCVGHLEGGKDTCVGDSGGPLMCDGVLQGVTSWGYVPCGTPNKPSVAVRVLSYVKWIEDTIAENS
Description: Inhibition of TK1 (Ki). The note with it: activated human TK1, substrate H-Pro-Phe-Arg-AMC, 24° C. The gist of the method: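 Trypsin-activated human TK1 (31.25 nM) incubated at 24° C with 0.1 mM H-Pro-Phe-Arg-AMC and compound in Tris pH 7.8, 150 mM NaCl, 0.1% BSA, 0.05% Tween20, 1% DMSO. AMC fluorescence (ex 350/em 450 nm) read kinetically over 16 min; IC50 from four-parameter fit, converted to Ki using substrate KM.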

Experiment [2] addresses T3, PKK in kaolin activated human platelet poor plasma (Homo sapiens, UniProt P03952).
T3 construct: Platelet poor plasma (PPP) obtained from human wholeblood; from tissue
Description: Inhibition of PKK in kaolin activated human PPP.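 Also: readout is the rate of fluorogenic substrate cleavage in rfu per min.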 The conditions noted are these: 25-750 μg/mL kaolin, global fit, text b200 calls the values IC90. The method, then:
Platelet poor plasma (PPP) obtained from human wholeblood, anticoagulated with Na-Citrate, is incubated with various concentrations of the test compound together with either 25, 75, 250, or 750 μg/mL kaolin in assay buffer for 20 min at 37° C. such that for each kaolin dose used a concentration response is obtained for the test compound.

The target of experiment [3] is T1, Human PKK. As to the kind of experiment: Inhibition of PKK (Ki). The conditions noted are these: substrate KM, enzyme PKK. The method, then:
The ability of compounds of formula (I) to inhibit plasma kallikrein (PKK), Factor XIIa (FXIIa), Factor XIa (FXIa), Factor Xa (FXa), Factor IIa (alpha-thrombin; FIIa), plasmin, trypsin, tissue kallikrein 1 (TK1), Factor VIIa (FVIIa), or FVIIa complexed with Tissue Factor, phospholipids and CaCl2 (FVIIa/TF/PL/CaCl2) is determined using the following biochemical assays in assay buffer (100 mM Tris, 150 mM NaCL, adjusted to a pH of 7.8 with HCl, and containing 0.1% (w/v) BSA and 0.05% (v/v) Tween20) in the presence of 1% (v/v) DMSO:
Human PKK (1.78 nM or 0.025 U/mL; Enzyme Research Laboratories) is incubated at 24° C. with 0.25 mM fluorogenic substrate H-Pro-Phe-Arg-AMC (11295 from Bachem) and various concentrations of the test compound in assay buffer. Measurements are performed in a kinetic interval every 2nd minute for 16 min using a Spectramax M5 (Molecular Devices) with the following settings of the wavelength excitation of 350 nm and wavelength emission of 450 nm.
The pIC50 values are then fitted using a four-parametric fitting procedure using GraphPad Prism (version 6; GraphPad Software, Inc.). Respective Ki values are obtained by correction of the IC50 values for the respective KM value of the used substrate (see Table A for the obtained KM values of the used substrates) using the following formula:
[formula] Where the IC50 is in molar and the KM value in mM.

Peptide text beside a SMILES is read from it. * marks the point of attachment. AMC = Cc1cc(=O)oc2cc(N*)ccc12

What is called IC50 is the concentration at which inhibition is half-maximal. As a reminder, the Ki is the equilibrium dissociation constant of an inhibitor or competing ligand from its target. Higher therefore signals lower affinity. In general, Km refers to the concentration of substrate that gives half-maximal velocity.

T3 sequence (P03952 391-638 limits assumed): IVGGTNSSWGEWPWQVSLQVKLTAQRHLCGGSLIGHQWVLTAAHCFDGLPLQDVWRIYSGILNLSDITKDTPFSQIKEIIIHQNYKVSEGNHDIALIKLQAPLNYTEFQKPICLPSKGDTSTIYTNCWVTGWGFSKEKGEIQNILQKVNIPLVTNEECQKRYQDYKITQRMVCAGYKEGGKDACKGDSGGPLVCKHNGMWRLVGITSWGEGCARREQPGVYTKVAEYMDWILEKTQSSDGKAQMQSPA
T3 sequence (P03952 20-390 limits assumed): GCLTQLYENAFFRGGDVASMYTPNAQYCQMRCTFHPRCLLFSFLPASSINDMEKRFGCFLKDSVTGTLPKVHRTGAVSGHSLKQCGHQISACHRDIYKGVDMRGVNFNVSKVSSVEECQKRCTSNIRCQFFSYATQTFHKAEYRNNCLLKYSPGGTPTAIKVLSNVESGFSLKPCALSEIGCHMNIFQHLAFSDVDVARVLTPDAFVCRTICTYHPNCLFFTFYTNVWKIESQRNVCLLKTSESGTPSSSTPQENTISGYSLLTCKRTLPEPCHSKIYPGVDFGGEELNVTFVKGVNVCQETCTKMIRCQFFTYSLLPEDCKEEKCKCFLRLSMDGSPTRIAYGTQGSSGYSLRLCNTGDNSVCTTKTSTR
T1 sequence (P03952 20-390 limits assumed): as above
T1 sequence (P03952 391-638 limits assumed): as the sequence (P03952 391-638 limits assumed) above

In the case of `Cc1nc(N2CC3CC3C2)ncc1Cn1cnc(C(=O)N[C@@H]2CCc3c2ncn3C)c1` (stereo partly drawn) [Example 171, 1-[(2-{3-Azabicyclo[3.1.0]hexan-3-yl}-4-methylpyrimidin-5-yl)methyl]-N-[(4R)-1-methyl-1H,4H,5H,6H-cyclopenta[d]imidazol-4-yl]-1H-imidazole-4-carboxamide], the figures for the IC50 (on Human PKK [1]; in experiment [2]) were 2.6 nM and 268 nM, respectively. The molecule also displayed a Ki at human TK1 greater than 10000 nM.

For `Cc1nc(N2CC3CC3C2)ccc1Cn1cc(C(=O)N[C@@H]2CCc3c2ncn3C)c2cncnc21` (stereo partly drawn) [Example 173, 7-[(6-{3-Azabicyclo[3.1.0]hexan-3-yl]-2-methylpyridin-3-yl)methyl]-N-[(4R)-1-methyl-1H,4H,5H,6H-cyclopenta[d]imidazol-4-yl]-7H-pyrrolo[2,3-d]pyrimidine-5-carboxamide], the concentration for half-maximal inhibition (IC50) was found to be 0.6 nM at Human PKK [1] and 729 nM in experiment [2]. Besides, the Ki at human TK1 was greater than 10000 nM.

Regarding `Cc1nc(N2CC3C(C2)C3(F)F)ncc1Cn1cc(C(=O)N[C@@H]2CCc3c2ncn3C)c2cncnc21` (stereo partly drawn) [Example 175, 7-[(2-{6,6-Difluoro-3-azabicyclo[3.1.0]hexan-3-yl}-4-methylpyrimidin-5-yl)methyl]-N-[(4R)-1-methyl-1H,4H,5H,6H-cyclopenta[d]imidazol-4-yl]-7H-pyrrolo[2,3-d]pyrimidine-5-carboxamide], the IC50 on Human PKK [1] came out at 2.9 nM; in experiment [2] it was 822 nM. This molecule also yielded an inhibition constant (Ki) on human TK1 greater than 10000 nM.

As for `Cc1nc(N2CC3CC3C2)ncc1Cn1cc(C(=O)N[C@@H]2CCc3c2ncn3C)cn1` (stereo partly drawn) [Example 177, 1-[(2-{3-Azabicyclo[3.1.0]hexan-3-yl}-4-methylpyrimidin-5-yl)methyl]-N-[(4R)-1-methyl-1H,4H,5H,6H-cyclopenta[d]imidazol-4-yl]-1H-pyrazole-4-carboxamide], the figures for the IC50 (against Human PKK [1]; in experiment [2]) were 5.5 nM and 1180 nM, respectively. The molecule further came in with an inhibitory constant (Ki) at human TK1 greater than 10000 nM.

For the molecule `Cc1nc(N2CC3C(C2)C3(F)F)ncc1Cn1cc(C(=O)N[C@@H]2CCc3c2ncn3C)nn1` (stereo partly drawn) [Example 178, 1-[(2-{6,6-Difluoro-3-azabicyclo[3.1.0]hexan-3-yl}-4-methylpyrimidin-5-yl)methyl]-N-[(4R)-1-methyl-1H,4H,5H,6H-cyclopenta[d]imidazol-4-yl]-1H-1,2,3-triazole-4-carboxamide], the half-inhibitory concentration (IC50) stood at 5 nM at Human PKK [1] and 844 nM in experiment [2]. The molecule further yielded a Ki on human TK1 greater than 10000 nM.

Regarding `Cc1nc(N2CC3CC3C2)ccc1Cc1ccc(C(=O)N[C@@H]2CCc3c2ncn3C)o1` (stereo partly drawn) [Example 181, 5-[(6-{3-Azabicyclo[3.1.0]hexan-3-yl}-2-methylpyridin-3-yl)methyl]-N-[(4R)-1-methyl-1H,4H,5H,6H-cyclopenta[d]imidazol-4-yl]furan-2-carboxamide], the values for the IC50 (against Human PKK [1]; in experiment [2]) were 10.9 nM and 22300 nM, respectively. For the same molecule, on human TK1, the Ki is greater than 10000 nM.

As to `Cn1cnc2c1CC[C@H]2NC(=O)c1cnn(Cc2ccc(N3CC4CC4C3)c(C#N)c2)c1` (stereo partly drawn) [Example 190, 1-[(4-{3-Azabicyclo[3.1.0]hexan-3-yl}-3-cyanophenyl)methyl]-N-[(4R)-1-methyl-1H,4H,5H,6H-cyclopenta[d]imidazol-4-yl]-1H-pyrazole-4-carboxamide], the figures for the IC50 (against Human PKK [1]; in experiment [2]) were 1.5 nM and 1080 nM, respectively. This molecule also returned a Ki on human TK1 greater than 10000 nM.

Consider `Cc1c(Cn2cc(C(=O)N[C@@H]3CCc4c3ncn4C)cn2)ccc(N2CC3CC3C2)c1C#N` (stereo partly drawn) [Example 193, 1-[(4-{3-azabicyclo[3.1.0]hexan-3-yl}-3-cyano-2-methylphenyl)methyl]-N-[(4R)-1-methyl-1H,4H,5H,6H-cyclopenta[d]imidazol-4-yl]-1H-pyrazole-4-carboxamide], for which the concentration for half-maximal inhibition (IC50) against Human PKK [1] was found to be 0.4 nM; in experiment [2] it was 253 nM. The Ki on human TK1 was greater than 10000 nM.

For the molecule `Cn1cnc2c1CC[C@H]2NC(=O)c1cn(Cc2ccc(N3CC4CC4C3)c(C#N)c2)cn1` (stereo partly drawn) [Example 196, 1-[(4-{3-azabicyclo[3.1.0]hexan-3-yl}-3-cyanophenyl)methyl]-N-[(4R)-1-methyl-1H,4H,5H,6H-cyclopenta[d]imidazol-4-yl]-1H-imidazole-4-carboxamide], the IC50 against Human PKK [1] is 1.5 nM; in experiment [2], 350 nM. On human TK1, this molecule gave a Ki greater than 10000 nM.

Take `Cn1cnc2c1CC[C@H]2NC(=O)c1cnn(Cc2ccc(N3CC4CC4C3)c(C#N)c2F)c1` (stereo partly drawn) [Example 198, 1-[(4-{3-azabicyclo[3.1.0]hexan-3-yl}-3-cyano-2-fluorophenyl)methyl]-N-[(4R)-1-methyl-1H,4H,5H,6H-cyclopenta[d]imidazol-4-yl]-1H-pyrazole-4-carboxamide]: the values for the IC50 (against Human PKK [1]; in experiment [2]) were 0.8 nM and 398 nM, respectively. On human TK1, this molecule had a Ki greater than 10000 nM.

For the molecule `Cc1nc(N2CC3CC3C2)ccc1Cn1cc(C(=O)N[C@@H]2CCc3c2ncn3C)c(CO)n1` (stereo partly drawn) [Example 217, 1-[(6-{3-Azabicyclo[3.1.0]hexan-3-yl}-2-methylpyridin-3-yl)methyl]-3-(hydroxymethyl)-N-[(4R)-1-methyl-1H,4H,5H,6H-cyclopenta[d]imidazol-4-yl]-1H-pyrazole-4-carboxamide], the values for the IC50 (on Human PKK [1]; in experiment [2]) were 0.9 nM and 624 nM, respectively. On human TK1, the Ki was greater than 10000 nM.

Take `Cc1nc(N2CC3C(C2)C3(F)F)ncc1Cn1cc(C(=O)N[C@@H]2CCc3c2ncn3C)cn1` (stereo partly drawn) [Example 218, 1-[(2-{6,6-Difluoro-3-azabicyclo[3.1.0]hexan-3-yl}-4-methylpyrimidin-5-yl)methyl]-N-[(4R)-1-methyl-1H,4H,5H,6H-cyclopenta[d]imidazol-4-yl]-1H-pyrazole-4-carboxamide]: the IC50 against Human PKK [1] was found to be 3.5 nM; in experiment [2], 646 nM. The same molecule came in with a Ki on human TK1 greater than 10000 nM.

Take `Cc1cc(=O)oc2cc(NC(=O)[C@H](CCCNC(=N)N)NC(=O)[C@H](Cc3ccccc3)NC(=O)[C@@H]3CCCN3)ccc12` [Example I1295, H-Pro-Phe-Arg-AMC] (H-Pro-Phe-Arg-{AMC}): the Km at Human PKK [3] was determined as 160 µM.
